{"source": "patent US7902248B2", "about": "“Oxime glucokinase activators” (Hoffmann-La Roche Inc., priority 2006, dated 2011)"}
{"target": "T1, Recombinant human liver GK (GST-GK) (Homo sapiens, UniProt P35557)", "T1 construct": "made in house; host or cells: E. coli", "T1 sequence (P35557 1-466 isoform P35557-2)": "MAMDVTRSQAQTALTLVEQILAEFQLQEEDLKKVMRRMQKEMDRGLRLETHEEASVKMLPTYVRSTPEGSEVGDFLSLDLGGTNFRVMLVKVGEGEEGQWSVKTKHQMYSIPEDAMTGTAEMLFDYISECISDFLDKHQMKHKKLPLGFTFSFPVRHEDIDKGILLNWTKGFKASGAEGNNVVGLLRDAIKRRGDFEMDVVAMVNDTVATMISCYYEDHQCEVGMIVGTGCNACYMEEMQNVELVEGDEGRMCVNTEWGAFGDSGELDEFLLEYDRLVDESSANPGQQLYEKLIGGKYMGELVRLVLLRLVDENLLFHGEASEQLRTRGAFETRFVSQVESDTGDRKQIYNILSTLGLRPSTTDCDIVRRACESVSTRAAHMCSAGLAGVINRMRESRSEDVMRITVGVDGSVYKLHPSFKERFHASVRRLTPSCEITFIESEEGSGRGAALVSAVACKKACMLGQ", "assay": "In vitro glucokinase activity assay (G6PDH-coupled NADH generation, OD 340 nm)", "type": "biochemical", "settings": "concentration of activator that produced a 50% increase in the activity of GK; 5 mM D-glucose, 25° C.-30° C., pH 7.1", "method": "Glucokinase In Vitro Assay Protocol. Glucokinase (GK) was assayed by coupling the production of glucose-6-phosphate to the generation of NADH with glucose-6-phosphate dehydrogenase (G6PDH, Roche) from Leuconostoc mesenteroides as the coupling enzyme (Scheme 2).\nRecombinant human liver GK was expressed in E. coli as a glutathione S-transferase fusion protein (GST-GK) [Liang et al, 1995] and was purified by chromatography over a glutathione-Sepharose 4B affinity column using the procedure provided by the manufacturer (Amersham Pharmacia Biotech, Piscataway, N.J.).\nThe assay was conducted at 25° C.-30° C. in a flat bottom 96-well tissue culture plate from Costar (Cambridge, Mass.) with a final incubation volume of 120 μL. The incubation reaction contained the following: 25 mM Hepes buffer (pH 7.1), 25 mM KCl, 5 mM D-glucose, 1 mM ATP, 1.8 mM NAD, 2 mM MgCl2, 1 μM sorbitol-6-phosphate, 1 mM dithiothreitol, test drug or 10% DMSO, 1.8 unit/ml G6PDH, and GK (see below). All organic reagents were >98% pure and were from Roche with the exceptions of D-glucose and Hepes which were from Sigma Chemical Co, St Louis, Mo. Test compounds were dissolved in DMSO and were added to the incubation reaction minus GST-GK in a volume of 12 μL to yield a final DMSO concentration of 10%. This mix was pre-incubated in the temperature controlled chamber of a SPECTRAmax 250 microplate spectrophotometer (Molecular Devices Corporation, Sunnyvale, Calif.) for 10 minutes to allow temperature equilibrium and then the reaction was started by the addition of 20 μL GST-GK.\nAfter addition of enzyme, the increase in optical density (OD) at 340 nm was monitored over a 15 minute incubation period as a measure of GK activity. The GK activity in control wells (mOD/min) was compared with the activity in wells containing test GK activators (mOD/min), and the concentration of activator that produced a 50% increase in the activity of GK, i.e., the SC1.5, was calculated.", "units": {"SC1.5": "µM"}}
{"molecule": "CC(C)O/N=C(/C(=O)Nc1nc2ccccc2s1)c1ccc(S(C)(=O)=O)c(Cl)c1", "note": "[Example 7, (E)-N-Benzothiazol-2-yl-2-(3-chloro-4-methanesulfonyl-phenyl)-2-isopropoxyimino-acetamide]", "SC1.5": 0.79}
{"molecule": "Cn1ccc(NC(=O)/C(=N/OC2CCCCC2)c2ccc(S(C)(=O)=O)c(Cl)c2)n1", "note": "[Example 9, (E)-2-(3-Chloro-4-methanesulfonyl-phenyl)-2-cyclohexyloxyimino-N-(1-methyl-1H-pyrazol-3-yl)-acetamide]", "SC1.5": 12}
{"molecule": "Cc1nsc(NC(=O)/C(=N/OC2CCCCC2)c2ccc(S(C)(=O)=O)c(Cl)c2)n1", "note": "[Example 10, (E)-2-(3-Chloro-4-methanesulfonyl-phenyl)-2-cyclohexyloxyimino-N-(3-methyl-[1,2,4]thiadiazol-5-yl)-acetamide]", "SC1.5": 8.4}
{"molecule": "CS(=O)(=O)c1ccc(/C(=N\\OC2CCCCC2)C(=O)Nc2ncc(C(N)=O)s2)cc1Cl", "note": "[Example 12, (E)-2-[2-(3-Chloro-4-methanesulfonyl-phenyl)-2-cyclohexyloxyimino-acetylamino]-thiazole-5-carboxylic acid amide]", "SC1.5": 1.1}
{"molecule": "CS(=O)(=O)c1ccc(/C(=N\\OC2CCCC2)C(=O)Nc2nc3ccccc3s2)cc1Cl", "note": "[Example 14, (E)-N-Benzothiazol-2-yl-2-(3-chloro-4-methanesulfonyl-phenyl)-2-cyclopentyloxyimino-acetamide]", "SC1.5": 0.26}
{"molecule": "O=C(Nc1nc2ccccc2s1)/C(=N/OC1CCCC1)c1ccc(Cl)c(Cl)c1", "note": "[Example 19, (E)-N-Benzothiazol-2-yl-2-cyclopentyloxyimino-2-(3,4-dichloro-phenyl)-acetamide]", "SC1.5": 29}
{"molecule": "CS(=O)(=O)c1ccc(/C(=N\\OC2CCCC2)C(=O)Nc2nc3ccc(Cl)cc3s2)cc1Cl", "note": "[Example 23, (E)-N-(6-Chloro-benzothiazol-2-yl)-2-(3-chloro-4-methanesulfonyl-phenyl)-2-cyclopentyloxyimino-acetamide]", "SC1.5": 2.8}
{"molecule": "CC(C)CO/N=C(/C(=O)Nc1ccn(C)n1)c1ccc(S(C)(=O)=O)c(Cl)c1", "note": "[Example 24, (E)-2-(3-Chloro-4-methanesulfonyl-phenyl)-2-isobutoxyimino-N-(1-methyl-1H-pyrazol-3-yl)-acetamide]", "SC1.5": 5.3}
{"molecule": "CC(C)CO/N=C(/C(=O)Nc1nc2ccccc2s1)c1ccc(S(C)(=O)=O)c(Cl)c1", "note": "[Example 25, (E)-N-Benzothiazol-2-yl-2-(3-chloro-4-methanesulfonyl-phenyl)-2-isobutoxyimino-acetamide]", "SC1.5": 1.6}
{"molecule": "CS(=O)(=O)c1ccc(/C(=N\\OC2CCCC2)C(=O)Nc2ccn(Cc3cccnc3)n2)cc1Cl", "note": "[Example 31, (E)-2-(3-Chloro-4-methanesulfonyl-phenyl)-2-cyclopentyloxyimino-N-(1-pyridin-3-ylmethyl-1H-pyrazol-3-yl)-acetamide]", "SC1.5": 0.35}
